The values below come from patent US6743937B2, “Efficient method of synthesizing combretastatin A-4 prodrugs” (OxiGene, Inc., priority 2000, dated 2004).

The conditions of series [1]: cited from earlier work.
The nature of series [2]: Aqueous solubility at 25° C. as a function of pH. Particulars: for Aqueous solubility: 25° C., based on cis-CA4P free acid. The class given is physicochemical.
Series [3] is described as follows: Solubility in organic solvents at 25° C. The following applies: based on cis-CA4P free acid; for Solubility in Acetone: BQL = below quantitation limit of the HPLC method. It is filed as physicochemical.
The nature of series [4]: Moisture sorption at 25° C. It is filed as physicochemical. The following applies: for Loss on drying at 1% RH / Wt. gain at 30-70% RH / Wt. gain at > 70% RH: moisture sorption at 25° C.
Series [5] can be described thus: Comparison of physical stability of Process A and Process B materials (DSC, TGA, powder-XRD, solubility). The following applies: based on the available data.

For `COc1ccc(/C=C\c2cc(OC)c(OC)c(OC)c2)cc1O` [combretastatin A-4], the Solubility in water result in series [1] is “extremely poor solubility in water”.

In the case of `COc1ccc(/C=C\c2cc(OC)c(OC)c(OC)c2)cc1OP(=O)([O-])[O-].[Na+].[Na+]` [Process A Product, combretastatin A-4 disodium phosphate], the Aqueous solubility in series [2] (pH 0.6 (adjusted with HCl)) was found to be 2.27 mg/mL; in series [2] (pH 0.8 (adjusted with HCl)) it was 0.83 mg/mL; in series [2] (pH 1.2 (adjusted with HCl)), 0.35 mg/mL; in series [2] (pH 5.2 (adjusted with HCl)), 77.4 mg/mL; in series [2] (pH 5.6 (adjusted with HCl)), 76.8 mg/mL; in series [2] (pH 7.1 (adjusted with HCl)), 169 mg/mL. The Aqueous solubility is on record as 204 mg/mL in series [2] (pH 7.2 (adjusted with HCl)), 208 mg/mL in series [2] (pH 7.8 (adjusted with HCl)) and 213 (in water) mg/mL in series [2] (pH 9.4 (in water)). For the same molecule, in series [3], the “Solubility in Ethanol” value is given as “Ethanol = 0.18 mg/mL”. Also, the “Solubility in Methanol” value in series [3] was “Methanol = 22.4 mg/mL”. For the same molecule, the “Solubility in Acetone” value in series [3] is on record as “Acetone = 0.45 mg/mL”. Also, in series [4], the “Hygroscopicity compared between products” value was “greater degree of hygroscopicity than the Product B product”. Besides, in series [4], the “Loss on drying at 1% RH” value was determined as 5.7%. The “Wt. gain at 30-70% RH” value in series [4] is given as 7-8.6%. In series [4], the “Wt. gain at > 70% RH” value is given as 9-30%.

On to `COc1ccc(/C=C\c2cc(OC)c(OC)c(OC)c2)cc1OP(=O)([O-])[O-].[Na+].[Na+]` [Process B Product, disodium salt of combretastatin A-4 phosphate], for which the Aqueous solubility came to 0.21 mg/mL in series [2] (pH 0.8 (adjusted with HCl)); 0.25 mg/mL in series [2] (pH 0.97 (adjusted with HCl)); 1.61 mg/mL in series [2] (pH 2.20 (adjusted with HCl)); 5.35 mg/mL in series [2] (pH 3.26 (adjusted with HCl)); 34.7 mg/mL in series [2] (pH 6.96 (adjusted with HCl)); 81.2 mg/mL in series [2] (pH 7.28 (adjusted with HCl)). In addition, the Aqueous solubility in series [2] (pH 7.35 (adjusted with HCl)) is listed as 94.3 mg/mL; in series [2] (pH 8.40 (adjusted with HCl)), 115 mg/mL; in series [2] (pH 9.4 (in water)), 118 (in water) mg/mL. For the same molecule, the “Solubility compared between products” value in series [2] (both aqueous and organic solvents at 25° C.) is “consistently lower solubility than the Process A product”. The “Solubility in Ethanol” value in series [3] was “Ethanol = 0.096 mg/mL”. Besides, the “Solubility in Methanol” value in series [3] is recorded as “Methanol = 1.77 mg/mL”. The “Solubility in Acetone” value in series [3] is “Acetone = BQL^$”. For the same molecule, in series [4], the “Loss on drying at 1% RH” value was 6.6%. The “Wt. gain at 30-70% RH” value in series [4] is given as 3%. Moreover, the “Wt. gain at > 70% RH” value in series [4] was “upto 30%”. Moreover, in series [5], the “Physical stability compared between products” value is “physically more stable material than Process A”.
